Assay results published in PubChem BioAssay AID1259407 (Chemical Carcinogenesis Research Information System (CCRIS), 2018).
The source made the active and inactive calls. How the calls were made is not given here.

System: CCRIS mutagenicity, Ames/micronucleus/aberration tests
Experiment: CCRIS mutagenicity studies

CC(C)(c1ccc(O)cc1)c1ccc(O)cc1
mutagenic call (End Point: IN VITRO CHROMOSOMAL ABERRATIONS, Test System: CHO CELLS, Metabolic Activation: RAT, LIVER, S-9, AROCLOR 1254): inactive; negative; previous trial yielded positive result at 50 ug/ml but no dose-respons | mutagenic call (End Point: In vitro micronucleus, Test System: Human lymphoblastoid AHH-1 cells, Metabolic Activation: None): active; positive (all doses >10.8 ug/ml) | mutagenic call (End Point: In vivo micronucleus, Test System: Bone marrow polychromatic erythrocytes, Species: Mouse, Strain/Sex: Swiss/Male, female, Route: Oral): inactive; negative | mutagenic call (Test System: AMES SALMONELLA TYPHIMURIUM, Strain/Indicator: TA97A, Metabolic Activation: NONE, Method: STANDARD PLATE): inactive; negative | mutagenic call (Test System: AMES SALMONELLA TYPHIMURIUM, Strain/Indicator: TA97A, Metabolic Activation: RAT LIVER S-9, PHENOBARBITAL AND BETA-NAPHTHAFLAVONE, Method: STANDARD PLATE): inactive; negative | mutagenic call (Test System: AMES SALMONELLA TYPHIMURIUM, Strain/Indicator: TA98, Metabolic Activation: NONE, Method: PREINCUBATION): inactive; negative | mutagenic call (Test System: AMES SALMONELLA TYPHIMURIUM, Strain/Indicator: TA98, Metabolic Activation: NONE, Method: STANDARD PLATE): inactive; negative | mutagenic call (Test System: AMES SALMONELLA TYPHIMURIUM, Strain/Indicator: TA98, Metabolic Activation: RAT LIVER S-9, AROCLOR 1254, Method: STANDARD PLATE): inactive; negative | mutagenic call (Test System: AMES SALMONELLA TYPHIMURIUM, Strain/Indicator: TA98, Metabolic Activation: RAT LIVER S-9, PHENOBARBITAL AND BETA-NAPHTHAFLAVONE, Method: STANDARD PLATE): inactive; negative | mutagenic call (Test System: AMES SALMONELLA TYPHIMURIUM, Strain/Indicator: TA98, Metabolic Activation: RAT LIVER S-9, PHENOBARBITAL AND BETA-NAPHTHOFLAVONE, Method: PREINCUBATION): inactive; negative | mutagenic call (Test System: AMES SALMONELLA TYPHIMURIUM, Strain/Indicator: TA98, Metabolic Activation: S-9, Method: PREINCUBATION): inactive; negative | mutagenic call (Test System: AMES SALMONELLA TYPHIMURIUM, Strain/Indicator: TA100, Metabolic Activation: NONE, Method: PREINCUBATION): inactive; negative | mutagenic call (Test System: AMES SALMONELLA TYPHIMURIUM, Strain/Indicator: TA100, Metabolic Activation: NONE, Method: STANDARD PLATE): inactive; negative | mutagenic call (Test System: AMES SALMONELLA TYPHIMURIUM, Strain/Indicator: TA100, Metabolic Activation: RAT LIVER S-9, AROCLOR 1254, Method: STANDARD PLATE): inactive; negative | mutagenic call (Test System: AMES SALMONELLA TYPHIMURIUM, Strain/Indicator: TA100, Metabolic Activation: RAT LIVER S-9, PHENOBARBITAL AND BETA-NAPHTHAFLAVONE, Method: STANDARD PLATE): inactive; negative | mutagenic call (Test System: AMES SALMONELLA TYPHIMURIUM, Strain/Indicator: TA100, Metabolic Activation: RAT LIVER S-9, PHENOBARBITAL AND BETA-NAPHTHOFLAVONE, Method: PREINCUBATION): inactive; negative | mutagenic call (Test System: AMES SALMONELLA TYPHIMURIUM, Strain/Indicator: TA100, Metabolic Activation: S-9, Method: PREINCUBATION): inactive; negative | mutagenic call (Test System: AMES SALMONELLA TYPHIMURIUM, Strain/Indicator: TA102, Metabolic Activation: NONE, Method: STANDARD PLATE): inactive; negative | mutagenic call (Test System: AMES SALMONELLA TYPHIMURIUM, Strain/Indicator: TA102, Metabolic Activation: RAT LIVER S-9, PHENOBARBITAL AND BETA-NAPHTHAFLAVONE, Method: STANDARD PLATE): inactive; negative | mutagenic call (Test System: AMES SALMONELLA TYPHIMURIUM, Strain/Indicator: TA1535, Metabolic Activation: NONE, Method: PREINCUBATION): inactive; negative | mutagenic call (Test System: AMES SALMONELLA TYPHIMURIUM, Strain/Indicator: TA1535, Metabolic Activation: RAT LIVER S-9, PHENOBARBITAL AND BETA-NAPHTHOFLAVONE, Method: PREINCUBATION): inactive; negative | mutagenic call (Test System: AMES SALMONELLA TYPHIMURIUM, Strain/Indicator: TA1537, Metabolic Activation: NONE, Method: PREINCUBATION): inactive; negative | mutagenic call (Test System: AMES SALMONELLA TYPHIMURIUM, Strain/Indicator: TA1537, Metabolic Activation: RAT LIVER S-9, PHENOBARBITAL AND BETA-NAPHTHOFLAVONE, Method: PREINCUBATION): inactive; negative | mutagenic call (Test System: CHINESE HAMSTER V-79, Strain/Indicator: V-79 (HPRT)/6-THIOGUANINE, Metabolic Activation: NONE): inactive; negative | mutagenic call (Test System: E.COLI, Strain/Indicator: WP2UVRA, Metabolic Activation: NONE, Method: PREINCUBATION): inactive; negative | mutagenic call (Test System: E.COLI, Strain/Indicator: WP2UVRA, Metabolic Activation: RAT LIVER S-9, PHENOBARBITAL AND BETA-NAPHTHOFLAVONE, Method: PREINCUBATION): inactive; negative
